Measurements taken from the supplement of paper PMC10307832.

Compound: Cc1ccc(NC(=O)c2ccc(CN3CCN(C)CC3)cc2)cc1Nc1nccc(-c2cccnc2)n1 [Imatinib]
Test: relative viability (nuclei count vs DMSO), 5 days (fraction); higher = more cells survive
Summary of the method: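 Lung cancer cell lines received five library-drug doses (not always all listed) spaced by √10, pinned on vehicle-anchored 1536-well plates after an overnight stay at 37 °C. Five days later, with no medium change, nuclei were Hoechst-stained, imaged at 4× and counted with MetaXpress. Viability is treated-well nuclei relative to vehicle-well nuclei, as a median across plates. Passing plates had control CV below 25% and at least one doubling.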

Cell Line	relative viability (0.02 µM)	relative viability (0.2 µM)	relative viability (0.6325 µM)	relative viability (2 µM)	relative viability (0.06325 µM)
201T	1.01	1.02	0.997	0.965	
A-427	1.04	0.989	0.974	0.969	
ABC-1	1.11	1.07	0.888	0.634	
BEN	1.09	0.897	0.871	0.912	0.82
CAL-12T	1.04	1.13	1.05	0.943	0.865
COR-L23	1.08	1.14	1.02	1.1	0.916
COR-L 105	1.06	1	0.891	0.9	0.979
Calu-6	1.08	1.16	1.06	1.02	1.08
ChaGo-K-1	1.02	1.01		0.949	0.794
EBC-1	1.13	1.17	1.02		0.878
EKVX	1.03	1	1.01		0.763
EMC-BAC-2	1.03	1.13	1.09	1.01	0.952
EPLC-272H	1.16	0.884	1.07	0.87	
H3255	1.05	0.893	1.06	0.899	0.749
HARA	1.06	1.07	0.993		
HCC-15	1.03	1.1	1.1		
HCC-44	0.998	1.12		0.893	0.945
HCC-78	0.901	1.06	0.89	0.904	0.797
HCC-366	0.978	1.06	1.07	0.988	0.856
HCC-827			1.05	1.03	1.04
HOP-62	1.15	1.2	0.999	0.943	
IA-LM	1.04	0.936	1.27	0.853	1.02
LC-2-ad	1.04	0.986	0.973	1	0.715
LCLC-97TM1	1.08	1.01	1	1.03	
LCLC-103H	1.02	1.12	0.964		0.806
LK-2	1.05	1.08	0.678	0.97	0.805

Cell Line	relative viability (0.02 µM)	relative viability (0.2 µM)	relative viability (0.6325 µM)	relative viability (2 µM)	relative viability (0.06325 µM)
LOU-NH91	0.968	0.966	0.964	0.874	1.09
LU99A	1.03	0.977	0.964	1.17	1.05
LXF-289	1.06	1.1	1.01	0.976	0.998
NCI-H23	1.06	1.07	0.967	0.926	0.994
NCI-H322M	0.988	0.99	0.831	0.944	1.05
NCI-H358		1.02	0.819	0.947	0.865
NCI-H441	1.06	1.2	0.885		0.969
NCI-H460	1.1	1.11	0.925	1	0.985
NCI-H520	1.11	0.907	0.882	0.938	1.15
NCI-H596		1.03	1.01	0.907	0.903
NCI-H647	0.976	1.12	0.991	0.962	1.05
NCI-H650	1	1.02	1.1	0.824	0.779
NCI-H661	0.977	0.994	0.969	0.982	0.962
NCI-H727	0.818	0.957	1.08	0.938	0.676
NCI-H838	1.03		1	1.01	1.09
NCI-H1299	1.05	1.07	1.02	1.04	
NCI-H1355	1.05	1.08	0.978	0.99	
NCI-H1395	1.13	0.897	0.976	0.938	
NCI-H1437	1.11	1.12	1.04	0.957	
NCI-H1563		1.11	0.963	0.976	0.912
NCI-H1648	0.744	0.699	0.421	0.618	0.627
NCI-H1650	0.919	1.03	0.922	0.993	0.778
NCI-H1651	1.1	1.03	0.967	0.948	0.876
NCI-H1666		0.98	1.15	1.01	0.958
NCI-H1703	0.947	0.56	0.357	0.212	0.804
NCI-H1734	1.04	1.09	0.996	0.876	

Cell Line	relative viability (0.02 µM)	relative viability (0.2 µM)	relative viability (0.6325 µM)	relative viability (2 µM)	relative viability (0.06325 µM)
NCI-H1755	1.08		0.958	1.01	0.988
NCI-H1792	0.946	1.03	0.948	0.87	0.921
NCI-H1793	0.939	1.11	0.884	0.909	
NCI-H1915	1.09	1.02	1.03	0.967	
NCI-H1944	0.974	0.977	0.969	0.951	0.706
NCI-H1975	1.04	0.94	0.964	0.94	0.951
NCI-H1993	0.89	1.08	0.886	0.925	0.8
NCI-H2009	1.08	1.09	1.05	0.977	0.728
NCI-H2023	1.06	1.14		0.985	0.78
NCI-H2085		1.01	1.04	1.02	0.826
NCI-H2087	1.11	1.13	1.16		
NCI-H2126	1.02	1.08	0.955	0.936	0.696
NCI-H2170	0.987	1.05	0.961	1.01	0.955
NCI-H2228		1.33		1.08	0.927
NCI-H2342	0.896	0.972	0.943	0.998	0.891
NCI-H2347	1.09	1.13	1.07	0.977	0.825
NCI-H2405		1.02	0.927	1	0.721
NCI-H3122	1.02	1.1	1.03	1.08	
PC-3 [JPC-3]	1.07	1.09	1.11	0.972	
PC-14	1.08	1.17	1	0.953	0.726
RERF-LC-KJ	1.1	1.06	0.985	0.953	0.884
SK-LU-1	1.08	1.15		1.11	
SK-MES-1		1.21	1.01	1.04	1.05
SW 900	0.806	0.941	0.896	0.855	0.712
SW 1573	1.16	1.13	1.01	1.02	0.79
UMC-11	1.03	1.03	1.1	0.941	0.987
